# Columns and labels:
# pZAP70 = target: T1, pZAP70 (Homo sapiens, UniProt P43403); assay: Western blot inhibition of ZAP70 phosphorylation in Jurkat T cells; type: cell-based; conditions: for Emax: Immunoblotting, pZAP70, Western blot assay in Jurkat T cells, read-out: Imax (%); for inhibition of ZAP-70 phosphorylation: Jurkat T cells stimulated by OKT3, 5 μM overnight
# T1 construct: host or cells: Jurkat T cells, OKT3-stimulated
# T1 sequence (P43403 1-619): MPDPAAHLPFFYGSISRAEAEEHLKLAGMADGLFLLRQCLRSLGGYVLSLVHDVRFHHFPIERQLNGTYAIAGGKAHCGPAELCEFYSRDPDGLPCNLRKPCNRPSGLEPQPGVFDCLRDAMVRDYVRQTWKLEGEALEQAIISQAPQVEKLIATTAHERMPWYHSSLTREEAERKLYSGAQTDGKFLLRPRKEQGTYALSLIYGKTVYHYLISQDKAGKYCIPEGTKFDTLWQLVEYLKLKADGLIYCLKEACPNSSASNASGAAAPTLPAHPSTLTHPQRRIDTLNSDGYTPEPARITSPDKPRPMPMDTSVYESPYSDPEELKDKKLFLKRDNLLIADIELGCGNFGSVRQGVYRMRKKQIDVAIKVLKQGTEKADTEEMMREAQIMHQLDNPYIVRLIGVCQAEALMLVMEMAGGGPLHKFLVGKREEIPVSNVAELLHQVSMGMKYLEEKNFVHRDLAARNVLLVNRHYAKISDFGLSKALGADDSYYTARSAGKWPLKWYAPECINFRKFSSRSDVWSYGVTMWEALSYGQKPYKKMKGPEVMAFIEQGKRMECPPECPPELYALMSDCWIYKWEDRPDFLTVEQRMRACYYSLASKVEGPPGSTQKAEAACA
# Method: (§1) (a) Cellular efficacy of WC35, WC36, and WC38 was determined by dose-dependent inhibition of Syk phosphorylation in Raji B cells. (b) Imax and IC50 values were determined by non-linear least-squares analysis of data using the equation: […] Each data represents average ±s.d. from triplicate measurements. […] Jurkat T cells were stimulated by OKT3. Cells were seeded at a density of 3.0×10^5 cells/well prior to incubation with inhibitors. […] IgG2 for AML cells, IgM for Raji B cells, and OKT3 (Biolegend) for Jurkat cells. […] Samples were analyzed by SDS-PAGE. Proteins were separated and transferred to Immobilon-P polyvinylidene difluoride membrane (Millipore Sigma). […] The chemiluminescence intensity of protein bands in the gel was analyzed and documented by the Azure […] Imaging System.
# [1] = system: phosphorylation of Syk, ERK1/2 and STAT3/5; assay: Western blot of phosphorylation in entospletinib-resistant MV4-11 cells; type: cell-based; conditions: 5 μM
# Method: Cells were seeded at a density of 3.0×10^5 cells/well prior to incubation with inhibitors. Cells were incubated with 1-5 μM of Syk inhibitors overnight and stimulated with different antibodies: IgG2 for AML cells, IgM for Raji B cells, and OKT3 (Biolegend) for Jurkat cells. The cells were lysed in NP40 lysis buffer (50 mM Tris, pH 7.5, 150 mM NaCl, 1 mM EDTA, 1% NP40, 10% glycerol, 10 mM NaF, 10 mM Na3VO4, and the protease inhibitor cocktail) at 4° C. and the cell debris was removed by centrifugation. Samples were analyzed by SDS-PAGE. Proteins were separated and transferred to Immobilon-P polyvinylidene difluoride membrane (Millipore Sigma). The membrane was blocked with 5% bovine serum albumin for 1 h and incubated overnight at 4° C. with various antibodies (1:1000 dilution for all antibodies). After the unbound antibodies were removed by washing with 0.1% Tris buffer saline with 0.1% Tween20, the membranes were incubated with the horseradish peroxidase secondary antibody (1:5000 dilution) for 1 h at room temperature. The membranes were washed three more times with 0.1% Tris buffer saline with 0.1% Tween20 to remove the unbound horseradish peroxidase secondary antibody before imaging. The chemiluminescence intensity of protein bands in the gel was analyzed and documented by the Azure 500Q Imaging System.
# Then the concentration was maintained at 5 μM.
# pSyk = target: T2, pSyk (Homo sapiens, UniProt P43405); assay: Western blot inhibition of Syk phosphorylation in Raji B cells; type: cell-based; conditions: Immunoblotting, Western blot assay in Raji B cells
# T2 construct: endogenous in cells; host or cells: Raji B cells, IgM-stimulated
# Method: as §1
# PLCγ2-cSH2 = target: T3, PLCγ2-cSH2 (Homo sapiens, UniProt P16885); assay: Fluorescence quenching vesicle binding assay, PLCγ2-cSH2; conditions: Table 4; POPC/POPS/PIP3/dabsyl-PE (67:20:3:10) vesicles (40 μM); read-out: Imax (%)
# T3 construct: polyhistidine (N); made in house; host or cells: Escherichia coli BL21 (DE3) pLysS
# T3 sequence (P16885 646-735 limits assumed): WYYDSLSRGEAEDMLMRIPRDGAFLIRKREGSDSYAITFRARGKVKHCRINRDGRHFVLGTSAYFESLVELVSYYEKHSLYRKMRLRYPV
# Method: (§2) The membrane-binding assay is based on fluorescence quenching of EGFP fused to a SH2 domain by a dark quencher containing lipid, dabsyl-PE, incorporated in lipid vesicles. The plate reader assay was performed using the Synergy™ Neo spectrofluorometer at 25° C. Nontreated black polystyrene 96-well plates (Corning) were used. Protein (10-50 nM) with the increasing concentration of vesicles with a given lipid composition in 20 mM Tris buffer, pH 7.4, containing 0.16 M NaCl was added to each row of wells and the EGFP fluorescence emission at 516 nm was measured with excitation set at 485 nm. Z′ factor for the assay system was determined as described^74. Imax and IC50 values of inhibitors were determined using the equation, I=Imax/(1+IC50/[I]) where I and [I] indicate % inhibition and inhibitor concentration, respectively. The average and standard deviation values were obtained from triplicate determinations.
# (§3) We also optimized a recently developed fluorescence quenching-based lipid-binding assay^47 for high-throughput screening of these molecules for their inhibitory activity against the PIP3-SH2 interaction. Specifically, we expressed SH2 domains as EGFP-tagged proteins and directly quantified their membrane binding by monitoring the quenching of EGFP fluorescence emission intensity by a dark quencher-containing lipid, N-dimethylaminoazo-benzenesulfonyl-phosphatidylethanolamine (dabsyl-PE), incorporated in the vesicles. We then screened for compounds that inhibited binding of Syk-cSH2, BLNK-SH2, and PLCγ2-cSH2, respectively, to 1-palmitoyl-2-oleoyl-PC (POPC)/1-palmitoyl-2-oleoyl-PS (POPS)/PIP3/dabsyl-PE (67:20:3:10) vesicles while eliminating those that inhibit their non-specific binding to anionic POPC/POPS/dabsyl-PE (70:20:10) vesicles. The quality of the screening system was evaluated using 1% dimethylsulfoxide (DMSO) and 20 μM D-myo-inositol-1,3,4,5-tetraphosphate (IP4) as negative and positive controls, respectively. The clear separation of positive and negative control data and the average Z′-factor of 0.7 supported the robustness of our system for high-throughput screen of PIP3-SH2 interaction inhibitors.
# Syk-cSH2 = target: T4, Syk-cSH2 (Homo sapiens, UniProt P43405); assay: Fluorescence quenching vesicle binding assay, Syk-cSH2; conditions: for IC50: read-out: IC50
# T4 construct: polyhistidine (N); made in house; host or cells: Escherichia coli BL21 (DE3) pLysS
# Method: as §2, §3
# [2] = Table 3, efficacy determined by the vesicle binding assay
# [3] = Table 4, POPC/POPS/PIP3/dabsyl-PE (67:20:3:10) vesicles (40 μM)
SMILES,Emax (pZAP70) [%],inhibition of ZAP-70 phosphorylation (pZAP70),"inhibition of phosphorylation of Syk, ERK1/2 and STAT3/5 [1]",IC50 (pSyk) [nM],Imax (%) (pSyk),Emax (PLCγ2-cSH2) [%],Imax (%) (Syk-cSH2; [2]),IC50 (Syk-cSH2; [2]) [nM],Imax (%) (Syk-cSH2; [3])
"[N-]=[N+]=C(C(=O)OC1CCCCC1)C(Nc1ncccn1)c1ccco1 (racemic) [WC35, Cyclohexyl 2-diazo-3-(furan-2-yl)-3-(pyrimidin-2-ylamino)propanoate]",< 10,did not inhibit phosphorylation and activation of ZAP-70,significantly less active than WC36,180 ± 50,58 ± 5,< 10,Imax (%) = 50,150,50 ± 5
"[N-]=[N+]=C(C(=O)OC1CCCCC1)C(Nc1ncccn1)c1c[nH]c2ccccc12 (racemic) [WC36, Cyclohexyl 2-diazo-3-(1H-indol-3-yl)-3-(pyrimidin-2-ylamino)propanoate]",< 10,did not inhibit phosphorylation and activation of ZAP-70,"potently suppressed the phosphorylation and activation of Syk, ERK1/2, and STAT3/5",52 ± 10,67 ± 5,< 10,Imax (%) = 60,40,60 ± 5
"[N-]=[N+]=C(C(=O)OC1CCCCC1)C(Nc1ncccn1)c1ccc[nH]1 (racemic) [WC38, Cyclohexyl 2-diazo-3-(pyrimidin-2-ylamino)-3-(1H-pyrrol-2-yl)propanoate]",< 10,did not inhibit phosphorylation and activation of ZAP-70,significantly less active than WC36,180 ± 30,65 ± 3,< 10,Imax (%) = 70,120,70 ± 5
